The values below come from article PMC6923765, “Structural Design, Synthesis, and Preliminary Biological Evaluation of Novel Dihomooxacalix[4]arene-Based Anti-tumor Agents” (Frontiers in Chemistry, 2019).

In data set [1] the test system is A549 cells (human lung carcinoma cells). Put plainly: SRB cytotoxicity assay, A549 cells. Format: cell-based. Here is the method: (§1) A549 cells (human lung carcinoma cells), MCF-7 cells (human breast cancer cells), HeLa cells (human cervical cancer cells), HepG2 cells (human hepatocellular carcinoma cells), and HUVEC cells (human umbilical vein endothelial cells) were kindly provided by WeiFang Caleb Pharmaceuticals, Inc. A549 cells were cultured in Ham's F12K medium containing 10% fetal bovine serum, 2 mM L-glutamine, and 1.5 g/L sodium bicarbonate; MCF-7 cells were cultured on cell culture flask using RPMI 1640 medium with 2 mM L-glutamine adjusted to contain 1.5 g/L sodium bicarbonate, 4.5 g/L glucose, 10 mM HEPES, 1.0 mM sodium pyruvate, and 10% fetal bovine serum. Hela cells were cultured on Cell culture flask using 2 mM L-glutamine adjusted to contain 1.5 g/L sodium bicarbonate, 4.5 g/L glucose, 10 mM HEPES, and 1.0 mM sodium pyruvate in RPMI 1640 medium supplemented with 0.5 mg/ml G418 and 10% fetal bovine serum. HepG2 cells were cultured in minimum essential medium (Eagle) with 2 mM L-glutamine, Earle's BSS, 1.5 g/L sodium bicarbonate, 0.1 mM non-essential amino acids, 1.0 mM sodium pyruvate, and 10% fetal bovine serum. HUVEC cells were cultured in M199 medium containing 2 mM L-glutamine adjusted to contain 1.5 g/L sodium bicarbonate, 4.5 g/L glucose, 10 mM HEPES, 1.0 mM sodium pyruvate, ECGS, and 10% fetal bovine serum. All cells were cultured at 37°C in 5% CO2.
(§2) The cell proliferation of adherent cells was determined by sulforhodamine B assay (SRB) (Quan et al., [2009]; Li et al., [2017]). All cells were cultured in culture medium containing 10% fetal bovine serum and have been in the logarithmic growth phase. All cell types were seeded in a 96-well culture plate at a concentration of 1–5 × 10^4 cells per well at 37°C in a 5% CO2 incubator for 24 h. The cells were then exposed to seven drug concentrations of dihomooxacalix[4]arene derivatives for 72 h with each concentration located in three wells. Then, the cells were fixed with trichloroacetic acid (TCA). After washing, SRB working solution was added to the cells to […]. SRB combined with protein was dissolved in Tris base. OD values were measured for each well with a SPECTRA max 190 Cell microplate reader under 540 nm wavelength. According to the OD value, the cell growth inhibition rate was calculated.
On the technique in general: Sulforhodamine B stains cellular protein and so reports cell mass.

In data set [2] the test system is MCF-7 cells (human breast cancer cells). Put plainly: SRB cytotoxicity assay, MCF-7 cells. Format: cell-based. Particulars: for inhibition at 10 µM: MCF7, 10 μM, 72 h. Here is the method:
as §1, §2

The test system of data set [3] is HeLa cells (human cervical cancer cells). Put plainly: SRB cytotoxicity assay, HeLa cells. It is filed as cell-based. The protocol: as §1, §2
Data set [4] concerns HUVEC cells (human umbilical vein endothelial cells). The experiment in a line: SRB cytotoxicity assay, HUVEC normal cells. It is filed as cell-based. Here is the method:
as §1, §2

For data set [5], the system named is HepG2 cells (human hepatocellular carcinoma cells). Put plainly: SRB cytotoxicity assay, HepG2 cells. Format: cell-based. Here is the method:
as §1, §2

Setting [6] is: Homo sapiens, HUVEC, 72 h, 10 μM, SRB, toxicity to normal cells.
The mark [7] stands for this setting: 72 h, SRB, read-out: IC50 (μM) A549.
The mark [8] stands for this setting: MCF7, 72 h, SRB, read-out: IC50 (μM) MCF-7.
[9] abbreviates: 72 h, SRB, read-out: IC50 (μM) HeLa.
Setting [10] is: 72 h, SRB, read-out: IC50 (μM) HepG2.

Like-named read-outs stand apart in the source and are kept apart here.

As usually defined, the melting point is the temperature, or range, at which the solid turns liquid. As a reminder, the inhibition is the change of the read-out against control, counted positive when it falls. A high value points to a strong effect. `CC(C)NC(=O)COc1c2cc(C(C)(C)C)cc1Cc1cc(C(C)(C)C)cc(c1O)Cc1cc(C(C)(C)C)cc(c1OCC(=O)NC(C)C)Cc1cc(C(C)(C)C)cc(c1O)COC2` [Compound 4I, 7,13,19,25-tetra-tert-butyl-28,30-di-hydroxy-27,29-di-(N-isopropyl-aminocarbonylmethoxyl)-2,3-dihomo-3-oxa calix[4]arene]: the melting point lay in the range of 133.3 to 135.7 °C. The compound also displayed an inhibition at 10 µM in data set [1] (72 h, SRB) of 45%. In data set [2] (SRB), this compound registered an inhibition at 10 µM of 17%. This compound registered an inhibition at 10 µM in data set [3] (72 h, SRB) of 44%. Besides, testing at 10 µM in data set [4] (setting [6]) gave an inhibition of 16%. Moreover, in data set [5] (72 h, SRB), the inhibition at 10 µM was 9%.

As a reminder, the IC50 is the concentration that gives 50% inhibition. Consider `CC(C)(C)c1cc2c(O)c(c1)Cc1cc(C(C)(C)C)cc3c1OCC(=O)NCCCNC(=O)COc1c(cc(C(C)(C)C)cc1Cc1cc(C(C)(C)C)cc(c1O)C3)COC2` [Compound 4F], for which the melting point was 189.5 to 191.4 °C. For the same compound, in data set [1] (72 h, SRB), the inhibition at 10 µM was determined as 63%. The IC50 in data set [1] (setting [7]) worked out at 2.9 ± 0.7 µM. Moreover, in data set [2] (SRB), testing at 10 µM gave an inhibition of 46%. The compound further returned an inhibition at 10 µM in data set [3] (72 h, SRB) of 59%. Moreover, 10 µM produced 42% inhibition in data set [4] (setting [6]). Further, the inhibition at 10 µM in data set [5] (72 h, SRB) worked out at 9%.

For `CC(=O)O[C@H]1C(=O)[C@@]2(C)[C@H]([C@H](OC(=O)c3ccccc3)[C@]3(O)C[C@H](OC(=O)[C@H](O)[C@@H](NC(=O)c4ccccc4)c4ccccc4)C(C)=C1C3(C)C)[C@]1(OC(C)=O)CO[C@@H]1C[C@@H]2O` [Paclitaxel, paclitaxel, reference compound], the IC50 in data set [1] (printed in the % inhibition column of Table 1, read-out: IC50 A549 (positive control)) was 0.00059 µM; in data set [2] (MCF7, printed in the % inhibition column of Table 1, read-out: IC50 MCF-7 (positive control)) it was 0.0008 µM; in data set [3] (HeLa, printed in the % inhibition column of Table 1, read-out: IC50 HeLa (positive control)) it was 0.0027 µM; in data set [4] (Homo sapiens, HUVEC, printed in the % inhibition column of Table 1, read-out: IC50 HUVEC (positive control)) it was 1 nM; in data set [5] (printed in the % inhibition column of Table 1, read-out: IC50 HepG2 (positive control)), 0.005 µM.

Regarding `CC(C)(C)c1cc2c(O)c(c1)Cc1cc(C(C)(C)C)cc(c1OCC(=O)NCCO)Cc1cc(C(C)(C)C)cc(c1O)Cc1cc(C(C)(C)C)cc(c1OCC(=O)NC1CCCC1)COC2` [Compound 4Q, 7,13,19,25-tetra-tert-butyl-28,30-di-hydroxy-27-(N-clopentyl-aminocarbonylmethoxyl)-29-(N-(2-hydroxyethyl)-aminocarbonylmethoxyl)-2,3-dihomo-3-oxacalix[4]arene], the melting point lay in the range of 138.3 to 140.5 °C.

On to `CC(C)(C)c1cc2c(O)c(c1)Cc1cc(C(C)(C)C)cc(c1OCC(=O)NCCO)Cc1cc(C(C)(C)C)cc(c1O)Cc1cc(C(C)(C)C)cc(c1OCC(=O)N(CCO)CCO)COC2` [Compound 4S, 7,13,19,25-tetra-tert-butyl-28,30-di-hydroxy-27-(N,N-bis(2-hydroxyethyl)-aminocarbonylmethoxyl)-29-(N-(2-hydroxyethyl)-aminocarbonylmethoxyl)-2,3-dihomo-3-oxacalix[4]arene], for which the melting point fell in the range of 144.4 to 146.2 °C.

Compound `CC(C)(C)c1cc2c(O)c(c1)Cc1cc(C(C)(C)C)cc(c1OCC(=O)NCCCCN)Cc1cc(C(C)(C)C)cc(c1O)Cc1cc(C(C)(C)C)cc(c1OCC(=O)NCCCCN)COC2` [Compound 4C, 7,13,19,25-tetra-tert-butyl-28,30-di-hydroxy-27,29-di-(N-(4-aminobutyl)-aminocarbonylmethoxyl)-2,3-dihomo-3-oxacalix[4] arene] displayed a melting point of 129.4 to 131.2 °C. Further, the inhibition at 10 µM in data set [1] (72 h, SRB) was found to be 42%. Besides, the IC50 in data set [1] (setting [7]) came out at 3.3 ± 0.7 µM. In data set [2] (SRB), this compound came in with an inhibition at 10 µM of 78%. In addition, the concentration for half-maximal inhibition (IC50) in data set [2] (setting [8]) was found to be 5.4 ± 2.6 µM. The inhibition at 10 µM in data set [3] (72 h, SRB) is 96%. For the same compound, in data set [3] (setting [9]), the IC50 turned out to be 2.3 ± 0.1 µM. This compound also had an inhibition at 10 µM in data set [4] (setting [6]) of 55%. The same compound displayed an inhibition at 10 µM in data set [5] (72 h, SRB) of 64%. Moreover, the IC50 in data set [5] (setting [10]) was determined as 5 ± 0.8 µM.

As for `CC(C)CNC(=O)COc1c2cc(C(C)(C)C)cc1Cc1cc(C(C)(C)C)cc(c1O)Cc1cc(C(C)(C)C)cc(c1OCC(=O)NCC(C)C)Cc1cc(C(C)(C)C)cc(c1O)COC2` [Compound 4J, 7,13,19,25-tetra-tert-butyl-28,30-di-hydroxy-27,29-di-(N-isobutyl-aminocarbonylmethoxyl)-2,3-dihomo-3-oxacalix [4]arene], the melting point lay in the range of 128.1 to 130.8 °C. In data set [1] (72 h, SRB), this compound showed an inhibition at 10 µM of 54%. Also, in data set [1] (setting [7]), the IC50 stood at 16.9 ± 3.2 µM. The same compound displayed an inhibition at 10 µM in data set [2] (SRB) of 40%. In data set [3] (72 h, SRB), this compound registered an inhibition at 10 µM of 35%. In addition, the inhibition at 10 µM in data set [4] (setting [6]) is 0%. The compound also came in with an inhibition at 10 µM in data set [5] (72 h, SRB) of 10%.

As to `CC(C)(C)c1cc2c(O)c(c1)Cc1cc(C(C)(C)C)cc(c1OCC(=O)NCCO)Cc1cc(C(C)(C)C)cc(c1O)Cc1cc(C(C)(C)C)cc(c1OCC(=O)NCCc1ccccc1)COC2` [Compound 4R, 7,13,19,25-tetra-tert-butyl-28,30-di-hydroxy-27-(N-phenethyl-aminocarbonylmethoxyl)-29-(N-(2-hydroxyethyl)-aminocarbonylmethoxyl)-2,3-dihomo-3-oxacalix[4]arene], the melting point was 120.7 to 123.3 °C.

The compound `CC(C)(C)c1cc2c(O)c(c1)Cc1cc(C(C)(C)C)cc(c1OCC(=O)N(CCO)CCO)Cc1cc(C(C)(C)C)cc(c1O)Cc1cc(C(C)(C)C)cc(c1OCC(=O)N(CCO)CCO)COC2` [Compound 4B, 7,13,19,25-tetra-tert-butyl-28,30-di-hydroxy-27,29-di-(N,N-bis(2-hydroxyethyl)-aminocarbonylmethoxyl)-2,3-dihomo−3-oxacalix[4]arene] displayed a melting point of 210.7 to 212.5 °C. Moreover, the inhibition at 10 µM in data set [1] (72 h, SRB) turned out to be 66%. Moreover, the IC50 in data set [1] (setting [7]) was 3.9 ± 0.5 µM. Further, the inhibition at 10 µM in data set [2] (SRB) turned out to be 73%. Also, in data set [2] (setting [8]), the 50% inhibitory concentration (IC50) came to 4.4 ± 0.7 µM. Besides, in data set [3] (72 h, SRB), the inhibition at 10 µM was 100%. Further, the IC50 in data set [3] (setting [9]) is 1.1 ± 0.5 µM. The compound further displayed an inhibition at 10 µM in data set [4] (setting [6]) of 23%. In data set [5] (72 h, SRB), this compound yielded an inhibition at 10 µM of 39%. Besides, in data set [5] (setting [10]), the IC50 stood at 3.8 ± 0.3 µM.

The compound `CC(C)(C)c1cc2c(O)c(c1)Cc1cc(C(C)(C)C)cc(c1OCC(=O)NCc1ccccc1)Cc1cc(C(C)(C)C)cc(c1O)Cc1cc(C(C)(C)C)cc(c1OCC(=O)NCc1ccccc1)COC2` [Compound 4N, 7,13,19,25-tetra-tert-butyl-28,30-di-hydroxy-27,29-di-(N-benzyl-aminocarbonylmethoxyl)-2,3-dihomo-3-oxacalix[4] arene] showed a melting point of 183.7 to 186.4 °C. The inhibition at 10 µM in data set [1] (72 h, SRB) is 64%. The half-inhibitory concentration (IC50) in data set [1] (setting [7]) was 6.8 ± 0.5 µM. Besides, the inhibition at 10 µM in data set [2] (SRB) turned out to be 43%. Besides, in data set [3] (72 h, SRB), the inhibition at 10 µM stood at 49%. In data set [4] (setting [6]), this compound gave an inhibition at 10 µM of 21%. The inhibition at 10 µM in data set [5] (72 h, SRB) stood at 10%.

For orientation: % inhibition means how much of the control response was suppressed. As for `CC(C)(C)c1cc2c(O)c(c1)Cc1cc(C(C)(C)C)cc(c1OCC(=O)NCCO)Cc1cc(C(C)(C)C)cc(c1O)Cc1cc(C(C)(C)C)cc(c1OCC(=O)NCCO)C2` [CLX-4, 5,11,17,23-tetra-tert-butyl-25,27-bis [N-(2-hydroxyethyl)aminocarbonylmethoxyl] calix[4]arene, reference compound], the inhibition at 10 µM came to 93% in data set [1] (72 h, SRB); 99% in data set [2] (SRB); 92% in data set [3] (72 h, SRB); 18% in data set [4] (setting [6]); 94% in data set [5] (72 h, SRB). For the same compound, the IC50 in data set [1] (setting [7]) stood at 2.8 ± 0.3 µM; in data set [2] (setting [8]), 2.1 ± 0.4 µM; in data set [3] (setting [9]), 1.9 ± 0.2 µM; in data set [5] (setting [10]), 6.6 ± 0.8 µM. The “% inhibition at 10 μM HUVEC” value in data set [4] (10 μM, 72 h, SRB, toxicity to normal cells) worked out at 16%.
